Experimental data from PubChem BioAssay AID248 (DTP/NCI, 2004).
Where “and” joins values, the source holds several entries; their conditions need not be identical. Identical values can stand only once. Toxic doses and inconclusive results are not listed. Cut-off read from the data, not from the text of the source: active = T/C of 150% or more; inactive = T/C below 125%.

System: L1210 leukemia ip in BDF1 mice, survival T/C
Assay: NCI In Vivo Anticancer Drug Screen. Data for tumor model L1210 Leukemia (intraperitoneal) in B6D2F1 (BDF1) mice
Conditions: endpoint: mean survival time, higher = longer survival
Summary of the method: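 Tumor cells were implanted, animals were treated, and survival was followed. The result divides the treated measurement by the vehicle-control measurement.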

[1] = dose: 100.0 mg/kg/injection, schedule: Q01DX001 (ip), vehicle: Klucel (hydroxypropylcellulose) (HPC)
[2] = dose: 200.0 mg/kg/injection, schedule: Q01DX001 (ip), vehicle: Klucel (hydroxypropylcellulose) (HPC)
[3] = dose: 400.0 mg/kg/injection, schedule: Q01DX001 (ip), vehicle: Klucel (hydroxypropylcellulose) (HPC)
[4] = dose: 100.0 mg/kg/injection, schedule: Q01DX001 (ip), vehicle: carboxymethylcellulose (CMC)
[5] = dose: 200.0 mg/kg/injection, schedule: Q01DX001 (ip), vehicle: carboxymethylcellulose (CMC)
[6] = dose: 100.0 mg/kg/injection, schedule: Q01DX001 (ip), vehicle: saline
[7] = dose: 200.0 mg/kg/injection, schedule: Q01DX001 (ip), vehicle: saline
[8] = dose: 400.0 mg/kg/injection, schedule: Q01DX001 (ip), vehicle: saline
[9] = dose: 100.0 mg/kg/injection, schedule: Q04DX002 (ip), vehicle: Klucel (hydroxypropylcellulose) (HPC)
[10] = dose: 200.0 mg/kg/injection, schedule: Q04DX002 (ip), vehicle: Klucel (hydroxypropylcellulose) (HPC)
[11] = dose: 100.0 mg/kg/injection, schedule: Q04DX003 (ip), vehicle: Klucel (hydroxypropylcellulose) (HPC)
[12] = dose: 200.0 mg/kg/injection, schedule: Q04DX003 (ip), vehicle: Klucel (hydroxypropylcellulose) (HPC)
[13] = dose: 400.0 mg/kg/injection, schedule: Q04DX003 (ip), vehicle: Klucel (hydroxypropylcellulose) (HPC)
[14] = dose: 400.0 mg/kg/injection, schedule: Q01DX001 (ip), vehicle: carboxymethylcellulose (CMC)
[15] = dose: 100.0 mg/kg/injection, schedule: Q01DX009 (ip), vehicle: Klucel (hydroxypropylcellulose) (HPC)
[16] = dose: 200.0 mg/kg/injection, schedule: Q01DX009 (ip), vehicle: Klucel (hydroxypropylcellulose) (HPC)
[17] = dose: 400.0 mg/kg/injection, schedule: Q01DX009 (ip), vehicle: Klucel (hydroxypropylcellulose) (HPC)
[18] = dose: 50.0 mg/kg/injection, schedule: Q01DX009 (ip), vehicle: saline
[19] = dose: 100.0 mg/kg/injection, schedule: Q01DX009 (ip), vehicle: saline
[20] = dose: 50.0 mg/kg/injection, schedule: Q04DX003 (ip), vehicle: saline
[21] = dose: 50.0 mg/kg/injection, schedule: Q01DX001 (ip), vehicle: saline
[22] = dose: 50.0 mg/kg/injection, schedule: Q01DX009 (ip), vehicle: Klucel (hydroxypropylcellulose) (HPC)

Measured: T/C

CN(C)C(=S)SCC(N)=O
inactive: [1] 103 % of control | [2] 100 % of control | [3] 103 % of control

CCCCCCCCCCCCCCCCCc1nc2nc(Cl)c(Cl)nc2[nH]1
inactive: dose: 50.0 mg/kg/injection, schedule: Q01DX009 (ip), vehicle: saline with Tween-80 91 % of control | dose: 100.0 mg/kg/injection, schedule: Q01DX009 (ip), vehicle: saline with Tween-80 91 % of control | dose: 100.0 mg/kg/injection, schedule: Q04DX003 (ip), vehicle: saline with Tween-80 98 % of control and 89 % of control | dose: 200.0 mg/kg/injection, schedule: Q01DX009 (ip), vehicle: saline with Tween-80 91 % of control | dose: 200.0 mg/kg/injection, schedule: Q04DX003 (ip), vehicle: saline with Tween-80 96 % of control | dose: 400.0 mg/kg/injection, schedule: Q01DX009 (ip), vehicle: saline with Tween-80 93 % of control | dose: 400.0 mg/kg/injection, schedule: Q04DX003 (ip), vehicle: saline with Tween-80 94 % of control and 90 % of control

NC1CCC(CC2CCCCCC2)CC1 (stereo unspecified)
inactive: dose: 6.25 mg/kg/injection, schedule: Q01DX009 (ip), vehicle: Klucel (hydroxypropylcellulose) (HPC) 107 % of control | dose: 12.5 mg/kg/injection, schedule: Q01DX009 (ip), vehicle: Klucel (hydroxypropylcellulose) (HPC) 100 % of control | dose: 25.0 mg/kg/injection, schedule: Q01DX009 (ip), vehicle: Klucel (hydroxypropylcellulose) (HPC) 97 % of control and 98 % of control

NC(N)=N/N=C(/C(=N\N=C(N)N)c1ccco1)c1ccco1
inactive: dose: 8.0 mg/kg/injection, schedule: Q01DX Z (oral), vehicle: methylcellulose (MC) 89 % of control | dose: 15.0 mg/kg/injection, schedule: Q01DX Z (ip), vehicle: methylcellulose (MC) 100 % of control | dose: 15.0 mg/kg/injection, schedule: Q01DX Z (oral), vehicle: methylcellulose (MC) 96 % of control | dose: 30.0 mg/kg/injection, schedule: Q01DX Z (oral), vehicle: methylcellulose (MC) 105 % of control

CC1c2ncnc(N)c2CN1C(=O)c1ccccc1 (stereo unspecified)
inactive: [4] 98 % of control | [5] 98 % of control

COc1ccc(Cc2ccc3c(C)cc(Cl)nc3c2)cc1
inactive: [6] 98 % of control | [7] 103 % of control | [8] 108 % of control

CCOC(=O)CNc1ccc(Cl)c(C)c1
inactive: [9] 111 % of control | [10] 107 % of control | dose: 400.0 mg/kg/injection, schedule: Q04DX002 (ip), vehicle: Klucel (hydroxypropylcellulose) (HPC) 111 % of control

O=C(O)/C(=C\c1cccc(Br)c1)c1ccccc1
inactive: dose: 75.0 mg/kg/injection, schedule: Q04DX003 (ip), vehicle: Klucel (hydroxypropylcellulose) (HPC) 104 % of control | [1] 105 % of control | dose: 150.0 mg/kg/injection, schedule: Q04DX003 (ip), vehicle: Klucel (hydroxypropylcellulose) (HPC) 96 % of control | [2] 97 % of control | dose: 300.0 mg/kg/injection, schedule: Q04DX003 (ip), vehicle: Klucel (hydroxypropylcellulose) (HPC) 105 % of control | [3] 97 % of control

CCCCC/C=C\C/C=C/CCCCCCCC1=NC(C)(CO)CO1 (stereo unspecified)
inactive: [6] 92 % of control | [7] 98 % of control | [8] 98 % of control

COC(=O)C(NC(=O)C(C)NC(=O)c1cnc2ccccc2n1)C(C)C (stereo unspecified)
inactive: [6] 91 % of control | [7] 98 % of control

CC(=O)Oc1ccc(N(CCCl)CCCl)cc1OC(C)=O
inactive: dose: 150.0 mg/kg/injection, schedule: Q01DX001 (ip), vehicle: other 98 % of control

CCCCCCCCCCCCCCCCSC1CC(=O)N(c2ccc3c(c2)Cc2ccccc2-3)C1=O (stereo unspecified)
inactive: [11] 96 % of control | [12] 96 % of control | [13] 100 % of control

CC1[N-]CCC[N-]CCC[N-]C(C)C2CCCC1[N-]2.[Ni+2].[O-][Cl+3]([O-])([O-])O (stereo unspecified)
inactive: dose: 25.0 mg/kg/injection, schedule: Q04DX002 (ip), vehicle: saline 92 % of control | dose: 50.0 mg/kg/injection, schedule: Q04DX002 (ip), vehicle: saline 89 % of control | dose: 100.0 mg/kg/injection, schedule: Q04DX002 (ip), vehicle: saline 92 % of control

CCCC(=O)NC(=S)Nc1ccccc1
inactive: dose: 75.0 mg/kg/injection, schedule: Q01DX001 (ip), vehicle: carboxymethylcellulose (CMC) 98 % of control

CCCN(CCC)C(=O)/C(=C\c1ccccc1)NC(=O)c1ccccc1
inactive: [4] 93 % of control | [5] 93 % of control | [14] 98 % of control

O=C(Nc1cccc([N+](=O)[O-])c1)Nc1ccccc1C(F)(F)F
inactive: [15] 94 % of control | [16] 91 % of control | [17] 93 % of control

COC(=O)C(N)CCCCNC(c1ccccc1)(c1ccccc1)c1ccccc1 (stereo unspecified)
inactive: [18] 107 % of control | [19] 86 % of control

Cc1c(Cl)cccc1NS(=O)(=O)c1ccc(Cl)cc1
inactive: [15] 117 % of control | [11] 102 % of control | [16] 111 % of control | [12] 119 % of control | [17] 101 % of control | [13] 110 % of control

C=CCOP(OCC=C)OCC=C
inactive: dose: 25.0 mg/kg/injection, schedule: Q01DX009 (ip), vehicle: saline 103 % of control | [18] 103 % of control | [20] 97 % of control | [19] 87 % of control | dose: 100.0 mg/kg/injection, schedule: Q04DX003 (ip), vehicle: saline 101 % of control

CN1CC(C)(C)C(=O)N1
inactive: dose: 25.0 mg/kg/injection, schedule: Q01DX001 (ip), vehicle: saline 97 % of control | [21] 100 % of control | [6] 108 % of control | [7] 86 % of control

CCCCNC(=O)NNC(=O)CCCC(=O)NNC(=O)NCCCC
inactive: [21] 100 % of control | [6] 93 % of control | [7] 100 % of control

OCCN1CCN(CCCN2c3ccccc3Oc3ccc(C(F)(F)F)cc32)CC1
inactive: dose: 25.0 mg/kg/injection, schedule: Q04DX003 (ip), vehicle: saline 92 % of control | [20] 106 % of control

CC(C)(C)OC(=O)C(C=O)N1C(=O)c2ccccc2C1=O (stereo unspecified)
inactive: [1] 94 % of control | dose: 100.0 mg/kg/injection, schedule: Q01DX009 (ip), vehicle: saline sonified 100 % of control | [2] 92 % of control | dose: 200.0 mg/kg/injection, schedule: Q01DX009 (ip), vehicle: saline sonified 94 % of control | [3] 100 % of control | dose: 400.0 mg/kg/injection, schedule: Q01DX009 (ip), vehicle: saline sonified 98 % of control

[BH3-][NH2+]c1cccc([NH2+][BH3-])c1
inactive: [6] 100 % of control | [7] 96 % of control | [8] 94 % of control

O=C(Oc1ccc(Cl)cc1)c1ccc(Cl)cc1
inactive: [22] 101 % of control | [15] 94 % of control | [11] 101 % of control | [16] 95 % of control | [12] 99 % of control | [13] 92 % of control

Cn1c[n+](C2OC(CO)C(O)C2O)c2nc(N)[nH]c(=O)c21 (stereo unspecified)
inactive: dose: 50.0 mg/kg/injection, schedule: Q01DX001 (ip), vehicle: carboxymethylcellulose (CMC) 92 % of control | [4] 92 % of control | [5] 97 % of control | [14] 93 % of control

COc1cc2c(cc1OC(C)=O)C(OC(C)=O)CCCC2 (stereo unspecified)
inactive: dose: 5.0 mg/kg/injection, schedule: Q01DX001 (ip), vehicle: saline 109 % of control | dose: 10.0 mg/kg/injection, schedule: Q01DX001 (ip), vehicle: saline 109 % of control | dose: 20.0 mg/kg/injection, schedule: Q01DX001 (ip), vehicle: saline 97 % of control | dose: 40.0 mg/kg/injection, schedule: Q01DX001 (ip), vehicle: saline 105 % of control

c1ccc(-c2c3ccccc3c(-c3ccccc3)c3c2ccc2ccccc23)cc1
inactive: [22] 91 % of control | [16] 91 % of control

CCCCC(CC)CNC1CCCCC1 (stereo unspecified)
inactive: dose: 75.0 mg/kg/injection, schedule: Q01DX009 (ip), vehicle: Klucel (hydroxypropylcellulose) (HPC) 98 % of control | [9] 101 % of control | dose: 150.0 mg/kg/injection, schedule: Q01DX009 (ip), vehicle: Klucel (hydroxypropylcellulose) (HPC) 101 % of control | [10] 97 % of control
